Laboratory results: patent US9617246B2, “Thioether-piperidinyl orexin receptor antagonists” (MERCK SHARP & DOHME CORP., priority 2013, dated 2017)

Key:
human orexin-2 receptor = human orexin-2 receptor (Homo sapiens (Human), UniProt O43614); test: FLIPR Ca2+ Flux Assay, orexin-2 receptor; assay type: cell-based; settings: CHO cells, agonist 70 pM Ala-6,12 human orexin-A; read-out: hOX2R FLIPR IC50
Protocol: The utility of the compounds in accordance with the present invention as orexin receptor OX1R and/or OX2R antagonists may be readily determined without undue experimentation by methodology well known in the art, including the “FLIPR Ca^2+ Flux Assay” (Okumura et al., Biochem. Biophys. Res. Comm. 280:976-981, 2001). In a typical experiment the OX1 and OX2 receptor antagonistic activity of the compounds of the present invention was determined in accordance with the following experimental method. For intracellular calcium measurements, Chinese hamster ovary (CHO) cells expressing the rat orexin-1 receptor or the human orexin-2 receptor, are grown in Iscove's modified DMEM containing 2 mM L-glutamine, […], 1% hypoxanthine-thymidine supplement, 100 U/ml penicillin, 100 μg/ml streptomycin and 10% heat-inactivated fetal calf serum (FCS). The cells are seeded at 20,000 cells/well into Becton-Dickinson black 384-well clear bottom sterile plates coated with poly-D-lysine. All reagents were from GIBCO-Invitrogen Corp. The seeded plates are incubated overnight at 37° C. and 5% CO2. Ala-6,12 human orexin-A as the agonist is prepared as a 1 mM stock solution in 1% bovine serum albumin (BSA) and diluted in assay buffer (HBSS containing 20 mM HEPES, 0.1% BSA and 2.5 mM probenecid, pH7.4) for use in the assay at a final concentration of 70 pM. Test compounds are prepared as 10 mM stock solution in DMSO, then diluted in 384-well plates, first in DMSO, then assay buffer. On the day of the assay, cells are washed 3 times with 100 μl assay buffer and then incubated for 60 min (37° C., 5% CO2) in 60 μl assay buffer containing 1 μM Fluo-4AM ester, 0.02% pluronic acid, and 1% BSA. The dye loading solution is then aspirated and cells are washed 3 times with 100 μl assay buffer. 30 μl of that same buffer is left in each well. Within the Fluorescent Imaging Plate Reader (FLIPR, Molecular Devices), test compounds are added to the plate in a volume of 25 μl, incubated for 5 min and finally 25 μl of agonist is added. Fluorescence is measured for each well at 1 second intervals for 5 minutes and the height of each fluorescence peak is compared to the height of the fluorescence peak induced by 70 pM Ala-6,12 orexin-A with buffer in place of antagonist. For each antagonist, IC50 value (the concentration of compound needed to inhibit 50% of the agonist response) is determined. Alternatively, compound potency can be assessed by a radioligand binding assay (described in Bergman et. al. Bioorg. Med. Chem. Lett. 2008, 18, 1425-1430) in which the inhibition constant (Ki) is determined in membranes prepared from CHO cells expressing either the OX1 or OX2 receptor. The intrinsic orexin receptor antagonist activity of a compound which may be used in the present invention may be determined by these assays.

hOX1R = hOX1R (Homo sapiens, UniProt O43613); test: FLIPR Ca2+ Flux Assay, orexin-1 receptor; assay type: cell-based; settings: CHO cells, agonist 70 pM Ala-6,12 human orexin-A

Chain of human orexin-2 receptor (O43614 whole entry): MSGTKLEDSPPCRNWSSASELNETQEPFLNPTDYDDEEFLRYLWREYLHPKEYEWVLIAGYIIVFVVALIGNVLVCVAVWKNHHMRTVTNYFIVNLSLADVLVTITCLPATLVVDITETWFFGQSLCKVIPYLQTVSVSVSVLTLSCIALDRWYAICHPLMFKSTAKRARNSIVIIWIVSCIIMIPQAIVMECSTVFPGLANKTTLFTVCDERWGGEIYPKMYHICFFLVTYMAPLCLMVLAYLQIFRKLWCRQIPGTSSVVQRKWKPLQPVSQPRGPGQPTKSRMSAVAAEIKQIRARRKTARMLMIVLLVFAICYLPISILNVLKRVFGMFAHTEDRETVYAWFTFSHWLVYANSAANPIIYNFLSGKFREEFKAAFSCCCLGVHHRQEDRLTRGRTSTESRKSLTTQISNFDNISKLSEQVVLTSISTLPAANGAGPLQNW

| SMILES | IC50 (human orexin-2 receptor) | IC50 (hOX1R) |
| --- | --- | --- |
| COC(=O)c1c(C)ccnc1S[C@@H]1CC[C@@H](C)N(C(=O)c2ccccc2-n2nccn2)C1 [Example 1, Methyl 4-methyl-2-{[(3R,6R)-6-methyl-1-{[2-(2H-1,2,3-triazol-2-yl)phenyl]carbonyl}-piperidin-3-yl]sulfanyl}pyridine-3-carboxylate] | 22.2 nM | 27.8 nM |
| Cc1cc(C#N)cc(S[C@@H]2CC[C@@H](C)N(C(=O)c3ccccc3-n3nccn3)C2)n1 [Example 2, 2-methyl-6-{[(3R,6R)-6-methyl-1-{[2-(2H-1,2,3-triazol-2-yl)phenyl]carbonyl}piperidin-3-yl]sulfanyl}pyridine-4-carbonitrile] | 82.9 nM | 1540 nM |
| COC(=O)c1cccnc1S[C@@H]1CC[C@@H](C)N(C(=O)c2ccccc2-n2nccn2)C1 [Example 3, methyl 2-{[(3R,6R)-6-methyl-1-{[2-(2H-1,2,3-triazol-2-yl)phenyl]carbonyl}piperidin-3-yl]sulfanyl}pyridine-3-carboxylate] | 23.9 nM | 48.1 nM |
| COC(=O)c1c(I)ccnc1S[C@@H]1CC[C@@H](C)N(C(=O)c2ccccc2-n2nccn2)C1 [Example 4, methyl 4-iodo-2-{[(3R,6R)-6-methyl-1-{[2-(2H-1,2,3-triazol-2-yl)phenyl]carbonyl}piperidin-3-yl]sulfanyl}pyridine-3-carboxylate] | 23.6 nM | 54.4 nM |
| C[C@@H]1CC[C@@H](Sc2ccccn2)CN1C(=O)c1ccccc1-n1nccn1 [Example 7, 2-{[(3R,6R)-6-methyl-1-{[2-(2H-1,2,3-triazol-2-yl)phenyl]carbonyl}piperidin-3-yl]sulfanyl}pyridine] | 179 nM | 1630 nM |
| C[C@@H]1CC[C@@H](Sc2ccc(C(F)(F)F)cn2)CN1C(=O)c1ccccc1-n1nccn1 [Example 8, 2-{[(3R,6R)-6-methyl-1-{[2-(2H-1,2,3-triazol-2-yl)phenyl]carbonyl}piperidin-3-yl]sulfanyl}-5-(trifluoromethyl)pyridine] | 322 nM | 596 nM |
| C[C@@H]1CC[C@@H](Sc2cc(C#N)ccn2)CN1C(=O)c1ccccc1-n1nccn1 [Example 9, 2-{[(3R,6R)-6-methyl-1-{[2-(2H-1,2,3-triazol-2-yl)phenyl]carbonyl}piperidin-3-yl]sulfanyl}pyridine-4-carbonitrile] | 13.5 nM | 1410 nM |
| Cc1ccnc(S[C@@H]2CC[C@@H](C)N(C(=O)c3ccccc3-n3nccn3)C2)c1C#N [Example 10, 4-methyl-2-{[(3R,6R)-6-methyl-1-{[2-(2H-1,2,3-triazol-2-yl)phenyl]carbonyl}piperidin-3-yl]sulfanyl}pyridine-3-carbonitrile] | 24.2 nM | 634 nM |
| Cc1ccnc(S[C@@H]2CC[C@@H](C)N(C(=O)c3ccccc3-n3nccn3)C2)c1 [Example 11, 4-methyl-2-{[(3R,6R)-6-methyl-1-{[2-(2H-1,2,3-triazol-2-yl)phenyl]carbonyl}piperidin-3-yl]sulfanyl}pyridine] | 20 nM | 440 nM |
| COC(=O)c1ccnc(S[C@@H]2CC[C@@H](C)N(C(=O)c3ccccc3-n3nccn3)C2)c1 [Example 13, methyl 2-{[(3R,6R)-6-methyl-1-{[2-(2H-1,2,3-triazol-2-yl)phenyl]carbonyl}piperidin-3-yl]sulfanyl}pyridine-4-carboxylate] | 297 nM | 6310 nM |
| COc1ccc(C(=O)N2C[C@H](Sc3cc(C#N)ccn3)CC[C@H]2C)c(-n2nccn2)n1 [Example 14, 2-{[(3R,6R)-1-{[6-Methoxy-2-(2H-1,2,3-triazol-2-yl)pyridin-3-yl]carbonyl}-6-methylpiperidin-3-yl]sulfanyl}pyridine-4-carbonitrile] | 149 nM | 10000 nM |
| C[C@@H]1CC[C@@H](Sc2cc(C#N)ccn2)CN1C(=O)c1c(F)cccc1-n1nccn1 [Example 16, 2-{[(3R,6R)-1-{[2-fluoro-6-(2H-1,2,3-triazol-2-yl)phenyl]carbonyl}-6-methylpiperidin-3-yl]sulfanyl}pyridine-4-carbonitrile] | 51.4 nM | 2350 nM |
| COc1cccc(-n2nccn2)c1C(=O)N1C[C@H](Sc2cc(C#N)ccn2)CC[C@H]1C [Example 17, 2-{[(3R,6R)-1-{[2-methoxy-6-(2H-1,2,3-triazol-2-yl)phenyl]carbonyl}-6-methylpiperidin-3-yl]sulfanyl}pyridine-4-carbonitrile] | 51.2 nM | 5880 nM |
| Cc1cccc(C(=O)N2C[C@H](Sc3cc(C#N)ccn3)CC[C@H]2C)c1-n1nccn1 [Example 18, 2-{[(3R,6R)-6-methyl-1-{[3-methyl-2-(2H-1,2,3-triazol-2-yl)phenyl]carbonyl}piperidin-3-yl]sulfanyl}pyridine-4-carbonitrile] | 14.4 nM | 803 nM |
| C[C@@H]1CC[C@@H](Sc2cc(C#N)ccn2)CN1C(=O)c1cccc(F)c1-n1nccn1 [Example 19, 2-{[(3R,6R)-1-{[3-fluoro-2-(2H-1,2,3-triazol-2-yl)phenyl]carbonyl}-6-methylpiperidin-3-yl]sulfanyl}pyridine-4-carbonitrile] | 20.8 nM | 2550 nM |
| C[C@@H]1CC[C@@H](Sc2cc(C#N)ccn2)CN1C(=O)c1ccc(Cl)cc1-n1nccn1 [Example 20, 2-{[(3R,6R)-1-{[4-chloro-2-(2H-1,2,3-triazol-2-yl)phenyl]carbonyl}-6-methylpiperidin-3-yl]sulfanyl}pyridine-4-carbonitrile] | 15.5 nM | 1030 nM |
| C[C@@H]1CC[C@@H](Sc2cc(C#N)ccn2)CN1C(=O)c1ccc(F)cc1-n1nccn1 [Example 21, 2-{[(3R,6R)-1-{[4-fluoro-2-(2H-1,2,3-triazol-2-yl)phenyl]carbonyl}-6-methylpiperidin-3-yl]sulfanyl}pyridine-4-carbonitrile] | 26.1 nM | 2720 nM |
| Cc1ccc(C(=O)N2C[C@H](Sc3cc(C#N)ccn3)CC[C@H]2C)c(-n2nccn2)c1 [Example 22, 2-{[(3R,6R)-6-methyl-1-{[4-methyl-2-(2H-1,2,3-triazol-2-yl)phenyl]carbonyl}piperidin-3-yl]sulfanyl}pyridine-4-carbonitrile] | 49 nM | 1500 nM |
| COc1ccc(C(=O)N2C[C@H](Sc3cc(C#N)ccn3)CC[C@H]2C)c(-n2nccn2)c1 [Example 23, 2-{[(3R,6R)-1-{[4-methoxy-2-(2H-1,2,3-triazol-2-yl)phenyl]carbonyl}-6-methylpiperidin-3-yl]sulfanyl}pyridine-4-carbonitrile] | 224 nM | 7820 nM |
| C[C@@H]1CC[C@@H](Sc2cc(C#N)ccn2)CN1C(=O)c1cc(Br)ccc1-n1nccn1 [Example 24, 2-{[(3R,6R)-1-{[5-bromo-2-(2H-1,2,3-triazol-2-yl)phenyl]carbonyl}-6-methylpiperidin-3-yl]sulfanyl}pyridine-4-carbonitrile] | 14.9 nM | 489 nM |
| C[C@@H]1CC[C@@H](Sc2cc(C#N)ccn2)CN1C(=O)c1cc(Cl)ccc1-n1nccn1 [Example 25, 2-{[(3R,6R)-1-{[5-chloro-2-(2H-1,2,3-triazol-2-yl)phenyl]carbonyl}-6-methylpiperidin-3-yl]sulfanyl}pyridine-4-carbonitrile] | 214 nM | 4860 nM |
| C[C@@H]1CC[C@@H](Sc2cc(C#N)ccn2)CN1C(=O)c1ccccc1-c1ccccc1 [Example 28, 2-{[(3R,6R)-1-(biphenyl-2-ylcarbonyl)-6-methylpiperidin-3-yl]sulfanyl}pyridine-4-carbonitrile] | 16.7 nM | 279 nM |
| C[C@@H]1CC[C@@H](Sc2cc(C#N)ccn2)CN1C(=O)c1ccccc1Oc1ccccc1 [Example 29, 2-({(3R,6R)-6-methyl-1-[(2-phenoxyphenyl)carbonyl]piperidin-3-yl}sulfanyl)pyridine-4-carbonitrile] | 62.7 nM | 10000 nM |
| C[C@@H]1CC[C@@H](Sc2cc(C#N)ccn2)CN1C(=O)c1ccccc1C1CC1 [Example 30, 2-({(3R,6R)-1-[(2-cyclopropylphenyl)carbonyl]-6-methylpiperidin-3-yl}sulfanyl)pyridine-4-carbonitrile] | 18.3 nM | 4070 nM |
